Where two headings read alike, the source gives them in different places.
Assays:
[1] = biological target: PrP^Sc content in the cells (Mus musculus, UniProt P04925); conditions: read-out: IC50 (concentration for which 50% of the PrP^Sc content in the cells is inhibited); cited from earlier work
[2] = biological target: PrP^Sc from infected N2a58/22L cells (Mus musculus, UniProt P04925); assay type: cell-based, murine
[3] = biological target: PrP^C from uninfected N2a58 cells (Mus musculus, UniProt P04925); assay type: cell-based, murine; conditions: uninfected cells, 1 to 10 μM, FIG. 3
[4] = prolonged incubation up to 14 days, 5 and 20 μM, FIG. 4

Sequence of PrP^Sc from infected N2a58/22L cells (P04925 23-230 limits assumed): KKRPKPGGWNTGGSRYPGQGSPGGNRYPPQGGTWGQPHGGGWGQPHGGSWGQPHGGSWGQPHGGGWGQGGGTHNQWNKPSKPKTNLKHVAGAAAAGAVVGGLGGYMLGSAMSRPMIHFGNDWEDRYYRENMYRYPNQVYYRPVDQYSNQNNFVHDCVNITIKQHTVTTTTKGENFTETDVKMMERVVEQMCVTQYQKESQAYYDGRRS
Sequence of PrP^Sc content in the cells (P04925 23-230 limits assumed): as above
Sequence of PrP^C from uninfected N2a58 cells (P04925 23-230 limits assumed): as above

## N#Cc1c(N)nc(Sc2ccccc2N)c(C#N)c1-c1ccco1 [2-amino-6-[(2-aminophenyl)thio]-4-(2-furyl)pyridine-3,5-dicarbonitrile]
[1]
  IC50: ~15 µM

## Nc1nccc(-c2ccc(-c3cccs3)s2)n1 [compound B, 4-(5-thienyl-2-thienyl)-2-(amino)-pyrimidine]
[2]; 14 days, 20 μM, FIG. 6
  amount of oligomeric forms observed compared with compound A: much greater than for the compound A
[2]; N2a58/22L cells, 3 days, 5 to 20 μM
  amount of oligomeric forms of PrP^Sc at 5 μM versus higher concentrations: identical to that observed for the concentration of 10 or 20 μM
[2]; incubation period of 14 days
  amplification capacity, comparative kinetics between compounds B and A: greater amplification capacity

## CSc1nccc(-c2ccc(Br)s2)n1 [compound A, 4-(5-bromo-2-thienyl)-2-(methylthio)pyrimidine]
[2]; 5 μM
  time at which the state of equilibrium of amplified oligomeric forms is reached: 11 days
[2]; 20 μM
  time at which the state of equilibrium of amplified oligomeric forms is reached: 3 days
[2]; 20 μM, N2a58/22L cells, immunoblot after PK
  increase in the signal on the oligomeric forms compared with an untreated control: approximately 90 fold
[2]; infected cells, immunoblotting after proteinase K, FIGS. 1 and 2
  effect on the amount of PrP^Sc in the infected cells: notably increases the amount of PrP^Sc
[2]; [4]
  appearance of oligomeric forms of greater size than those observed over 3 days: does not induce the appearance of oligomeric forms having a size greater
  depletion of monomeric form PrP^Sc27-30 to the benefit of oligomeric forms around 50-60 kDa: No depletion
[3]
  oligomerization of PrP^C in the cells: does not increase the oligomerization of PrP^C

## COc1ccc(S(=O)(=O)NNC(=O)c2ccc(Cn3cnc(Cl)c3Cl)o2)cc1 [N′-1-({5-[(4,5-dichloro-1H-imidazol-1-yl)methyl]-2-furyl}carbonyl)-4-methoxybenzene-1-sulfonohydrazide]
[1]
  IC50: ~15 µM

— patent US8435744B2 (priority 2005, dated 2013)
